Laboratory results published in publication PMC4660513 (Pharmacognosy Research, 2015).
“And” between values parts separate entries of the source, which are not always exact repeats. Equal entries are not always repeated. Structures can show the parent of a compound that is named as a salt. Where two headings read alike, the source gives them in different places.

How the values were obtained:
human UGT2B7 [1] = settings: read-out: Km for 4-MU glucuronidation by human UGT2B7 isoform; cited from earlier work
recombinant human UGT1A1 = biological target: T1, recombinant human UGT1A1 (Homo sapiens, UniProt P22309); experiment: 4-MU glucuronidation inhibition assay with recombinant human UGT1A1 isoform; type: in vitro ADME
T1 sequence (P22309 26-533): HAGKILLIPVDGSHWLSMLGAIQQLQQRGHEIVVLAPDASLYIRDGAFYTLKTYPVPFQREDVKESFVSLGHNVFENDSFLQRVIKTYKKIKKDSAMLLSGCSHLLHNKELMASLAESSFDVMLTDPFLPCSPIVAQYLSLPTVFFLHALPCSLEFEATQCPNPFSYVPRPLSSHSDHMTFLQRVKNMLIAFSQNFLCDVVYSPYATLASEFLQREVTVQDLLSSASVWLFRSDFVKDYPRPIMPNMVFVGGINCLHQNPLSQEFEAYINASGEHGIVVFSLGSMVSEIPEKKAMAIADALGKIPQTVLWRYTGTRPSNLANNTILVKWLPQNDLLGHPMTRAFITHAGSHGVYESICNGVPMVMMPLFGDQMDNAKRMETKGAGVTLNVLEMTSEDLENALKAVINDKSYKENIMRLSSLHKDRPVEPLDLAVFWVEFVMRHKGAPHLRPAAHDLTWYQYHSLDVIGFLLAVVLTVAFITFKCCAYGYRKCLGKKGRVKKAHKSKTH

[2] = system: UGT (4-MU glucuronidation); experiment: 4-MU glucuronidation inhibition assay in rat liver microsomes; type: in vitro ADME; settings: rat, rat liver microsomes, pH 7.4, probe 4-methylumbelliferone (4-MU), 100 μM
human UGT2B15 = settings: read-out: estimated IC50, human UGT2B15; previous study; cited from earlier work
UGT (s) = settings: cited from earlier work
human UGT2B7 [3] = settings: read-out: estimated IC50, human UGT2B7; previous study; cited from earlier work
recombinant human UGT2B7 = biological target: T2, recombinant human UGT2B7 (Homo sapiens, UniProt P16662); experiment: 4-MU glucuronidation inhibition assay with recombinant human UGT2B7 isoform; type: in vitro ADME
T2 sequence (P16662 24-529): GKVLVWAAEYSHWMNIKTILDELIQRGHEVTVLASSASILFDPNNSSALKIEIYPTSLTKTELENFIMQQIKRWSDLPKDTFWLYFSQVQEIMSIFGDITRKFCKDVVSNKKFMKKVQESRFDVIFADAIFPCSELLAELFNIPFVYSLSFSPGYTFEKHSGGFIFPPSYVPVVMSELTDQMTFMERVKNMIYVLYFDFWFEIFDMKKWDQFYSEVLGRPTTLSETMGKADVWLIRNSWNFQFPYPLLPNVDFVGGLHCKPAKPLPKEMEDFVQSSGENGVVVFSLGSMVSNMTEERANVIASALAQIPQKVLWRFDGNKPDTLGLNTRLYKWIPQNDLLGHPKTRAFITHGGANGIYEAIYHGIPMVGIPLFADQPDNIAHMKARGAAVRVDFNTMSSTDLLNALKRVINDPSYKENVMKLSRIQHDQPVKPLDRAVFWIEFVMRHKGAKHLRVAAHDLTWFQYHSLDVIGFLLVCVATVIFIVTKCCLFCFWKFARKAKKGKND

[4] = cited from earlier work
human UGT1A1 = settings: previous report; cited from earlier work
human UGT2B7 [5] = settings: read-out: Km for buprenorphine glucuronidation by human UGT2B7 isoform; cited from earlier work
UGT1A1 = settings: except at highly extraordinary concentrations; cited from earlier work
human liver microsomes = experiment: 4-MU glucuronidation inhibition assay in human liver microsomes; type: in vitro ADME; settings: comparison of IC50 values
rat liver microsomes = experiment: 4-MU glucuronidation inhibition assay in rat liver microsomes; type: in vitro ADME

Molecule: Cc1cc(=O)oc2cc(O)ccc12 [4-MU, 4-methylumbelliferone]
- Km (human UGT2B7 [1]): 335 µM

Molecule: O=C(O)Cc1ccccc1Nc1c(Cl)cccc1Cl [Diclofenac, diclofenac]
- IC50 (recombinant human UGT1A1): 2.34 ± 1.28 µM
- IC50 at 30 min [2]: 21.1 ± 1.32 µM

Molecule: CNC1(c2ccccc2Cl)CCCCC1=O (centres unmarked) [Ketamine, Ketamine hydrochloride]
- IC50 (human UGT2B15): 95 µM
- manner of inhibition of morphine-3-glucuronide formation (UGT (s)): non-competitive
- IC50 (recombinant human UGT1A1): > 1000 µM
- IC50 (human UGT2B7 [3]): 55 µM
- IC50 (recombinant human UGT2B7): 27.3 ± 1.18 µM
- ketamine concentration after low-dose administration ([4]; 0.125–0.250 mg/kg intravenous): > 0.42 μM and > 100 μg/l
- mean plasma concentration during steady-state anesthesia ([4]; induction 2 mg/kg, maintenance approx. 40 μg/kg/min): 9.3 µM
- inhibitory effect on 4-MU glucuronidation in human UGT1A1 isoform (human UGT1A1): weak inhibitory effect
- IC50 at 30 min [2]: 6.21 ± 1.51 µM

Molecule: buprenorphine hydrochloride
- Km (human UGT2B7 [5]): 20.9 µM
- inhibitory effect on bilirubin glucuronidation catalyzed by UGT1A1 (UGT1A1): no significant inhibitory effect
- potency relative to diclofenac (more potent) (human liver microsomes): about 13 orders of magnitude
- potency relative to diclofenac (rat liver microsomes; rat liver microsomes, comparison of IC50 values): about three orders of magnitude less potent than diclofenac
- IC50 (rat liver microsomes; read-out: IC50 on 4-MUG formation, rat liver microsomes): 73.2 ± 1.63 µM
